In patent publication EP0090510A2, “O-carbamoyl salicylates and their preparation” (Council of Scientific and Industrial Research, priority 1983, dated 1983):

Columns and labels:
Type in all cases: in vivo
Settings in all cases: Dose : 200 mg/kg
[1] = Analgesic protection, writhing test; parameters: unit not given here
[2] = Anti-inflammatory, edema test
[3] = Anti-inflammatory, granuloma test

| Molecule | Analgesic protection Writhing [1] | Anti-inflammatory %Inhibition Raw edema [2] | Anti-inflammatory %Inhibition Granuloma [3] |
| --- | --- | --- | --- |
| Cc1cccc(OC(=O)c2ccccc2OC(N)=O)c1 [compound 8] | 84.00 | 48.50% | 33.25% |
| NC(=O)Oc1ccccc1C(=O)Oc1ccc(Cl)cc1Cl [compound 7] | 76.00 | 28.77% | 34.40% |
| NC(=O)Oc1ccccc1C(=O)Oc1ccc(Cl)cc1 [compound 6] | 83.00 | 37.88% | 41.45% |
| CCCCCCCCCCCCCCCc1cccc(OC(=O)c2ccccc2OC(N)=O)c1 [compound 10] | 45.00 | 12.10% | 33.55% |
| Cc1cc(OC(=O)c2ccccc2OC(N)=O)ccc1Cl [compound 9] | 68.00 | 28.90% | 24.04% |
| O-Carbamoyl (3-pentadecylphenyl) salicylate [Sl. No. 10] | 67.00 | 34.85% | 19.79% |
| O-Carbamoyl phenylsalicylate [Sl. No. 4] | 95.00 | 34.86% | 28.63% |
| NC(=O)Oc1ccccc1C(=O)Oc1ccccc1 [compound 4] | 72.00 | 93.19% | 57.65% |
| NC(=O)Oc1ccccc1C(=O)Oc1ccccc1Cl [compound 5] | 70.00 | 35.00% | 35.06% |
| O-Carbamoyl ethylsalicylate [Sl. No. 2] | 69.78 | 76.23% | 46.32% |
